“And” between values parts separate entries of the source, which are not always exact repeats. Equal entries are not always repeated. Toxic doses and inconclusive results are not listed.
Tested on: L1210 leukemia ip in BDF1 mice, survival T/C
Assay: NCI In Vivo Anticancer Drug Screen. Data for tumor model L1210 Leukemia (intraperitoneal) in B6D2F1 (BDF1) mice
Conditions: endpoint: mean survival time, higher = longer survival
Summary of the method: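 Each compound was tested against a transplantable tumor grown in mice. The endpoint was survival, with treated animals benchmarked against vehicle controls as a simple ratio.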

BrC1CC2OC2C2OC12 (stereo not given)
T/C (dose: 25.0 mg/kg/injection, schedule: Q04DX002 (ip), vehicle: saline): 108 % of control | T/C (dose: 50.0 mg/kg/injection, schedule: Q04DX002 (ip), vehicle: saline): 105 % of control | T/C (dose: 100.0 mg/kg/injection, schedule: Q01DX001 (ip), vehicle: saline): 100 % of control | T/C (dose: 100.0 mg/kg/injection, schedule: Q04DX002 (ip), vehicle: saline): 102 % of control

O=C1N[C@@H]([C@H]2CC[C@H](Cl)CN2)C(=O)N[C@H]1[C@H]1CC[C@H](Cl)CN1
T/C (dose: 0.05 mg/kg/injection, schedule: Q01DX009 (ip), vehicle: saline): 98 % of control and 109 % of control | T/C (dose: 0.1 mg/kg/injection, schedule: Q01DX009 (ip), vehicle: saline): 104 % of control and 113 % of control | T/C (dose: 0.2 mg/kg/injection, schedule: Q01DX009 (ip), vehicle: saline): 104 % of control and 124 % of control | T/C (dose: 0.25 mg/kg/injection, schedule: Q03HX008 (ip), vehicle: saline): 117 % of control | T/C (dose: 0.25 mg/kg/injection, schedule: Q03HX016 (ip), vehicle: saline): 121 % of control | T/C (dose: 0.39 mg/kg/injection, schedule: Q01DX009 (ip), vehicle: water): 104 % of control | T/C (dose: 0.4 mg/kg/injection, schedule: Q01DX009 (ip), vehicle: saline): 107 % of control | T/C (dose: 0.5 mg/kg/injection, schedule: Q01DX009 (ip), vehicle: saline): 150 % of control | T/C (dose: 0.5 mg/kg/injection, schedule: Q03HX016 (ip), vehicle: saline): 158 % of control | T/C (dose: 0.78 mg/kg/injection, schedule: Q01DX009 (ip), vehicle: water): 120 % of control | T/C (dose: 0.8 mg/kg/injection, schedule: Q01DX009 (ip), vehicle: saline): 190 % of control | T/C (dose: 1.0 mg/kg/injection, schedule: Q01DX001 (ip), vehicle: other): 103 % of control | T/C (dose: 1.0 mg/kg/injection, schedule: Q01DX001 (ip), vehicle: saline): 173 % of control | T/C (dose: 1.0 mg/kg/injection, schedule: Q01DX009 (ip), vehicle: saline): 161 % of control and 186 % of control | T/C (dose: 1.0 mg/kg/injection, schedule: Q01DX009 (ip), vehicle: water): 108 % of control | T/C (dose: 1.0 mg/kg/injection, schedule: Q01DX009 (sc), vehicle: saline): 161 % of control | T/C (dose: 1.0 mg/kg/injection, schedule: Q03HX008 (ip), vehicle: saline): 165 % of control | T/C (dose: 1.0 mg/kg/injection, schedule: Q03HX016 (ip), vehicle: saline): 280 % of control | T/C (dose: 1.1 mg/kg/injection, schedule: Q01DX009 (ip), vehicle: saline): 246 % of control | T/C (dose: 1.25 mg/kg/injection, schedule: Q01DX001 (ip), vehicle: saline): 116 % of control and 122 % of control | T/C (dose: 1.3 mg/kg/injection, schedule: Q01DX009 (ip), vehicle: saline): 159 % of control | T/C (dose: 1.5 mg/kg/injection, schedule: Q01DX009 (ip), vehicle: saline): 171 % of control and 189 % of control | T/C (dose: 1.56 mg/kg/injection, schedule: Q01DX009 (ip), vehicle: water): 160 % of control | T/C (dose: 1.8 mg/kg/injection, schedule: Q01DX009 (ip), vehicle: saline): 255 % of control | T/C (dose: 2.0 mg/kg/injection, schedule: Q01DX001 (ip), vehicle: none): 120 % of control | T/C (dose: 2.0 mg/kg/injection, schedule: Q01DX001 (ip), vehicle: other): 124 % of control | T/C (dose: 2.0 mg/kg/injection, schedule: Q01DX001 (sc), vehicle: saline): 114 % of control | T/C (dose: 2.0 mg/kg/injection, schedule: Q01DX009 (ip), vehicle: saline): 206 % of control and 290 % of control and 306 % of control | T/C (dose: 2.0 mg/kg/injection, schedule: Q01DX009 (ip), vehicle: water): 119 % of control | T/C (dose: 2.0 mg/kg/injection, schedule: Q01DX009 (oral), vehicle: saline): 173 % of control | T/C (dose: 2.0 mg/kg/injection, schedule: Q01DX009 (sc), vehicle: saline): 201 % of control | T/C (dose: 2.0 mg/kg/injection, schedule: Q03HX008 (ip), vehicle: saline): 430 % of control | T/C (dose: 2.0 mg/kg/injection, schedule: Q03HX016 (ip), vehicle: saline): 207 % of control | T/C (dose: 2.0 mg/kg/injection, schedule: Q04DX003 (ip), vehicle: saline): 172 % of control | T/C (dose: 2.0 mg/kg/injection, schedule: Q08DX002 (ip), vehicle: saline): 155 % of control | T/C (dose: 2.2 mg/kg/injection, schedule: Q01DX009 (ip), vehicle: saline): 210 % of control and 297 % of control | T/C (dose: 2.6 mg/kg/injection, schedule: Q01DX009 (ip), vehicle: saline): 206 % of control and 470 % of control | T/C (dose: 3.0 mg/kg/injection, schedule: Q01DX009 (ip), vehicle: saline): 229 % of control | T/C (dose: 3.13 mg/kg/injection, schedule: Q01DX009 (ip), vehicle: water): 213 % of control | T/C (dose: 4.0 mg/kg/injection, schedule: Q01DX001 (oral), vehicle: saline): 176 % of control | T/C (dose: 4.0 mg/kg/injection, schedule: Q01DX009 (oral), vehicle: saline): 86 % of control | T/C (dose: 4.0 mg/kg/injection, schedule: Q04DX003 (ip), vehicle: saline): 208 % of control | T/C (dose: 4.0 mg/kg/injection, schedule: Q08DX002 (ip), vehicle: saline): 213 % of control | T/C (dose: 5.0 mg/kg/injection, schedule: Q01DX001 (ip), vehicle: saline): 165 % of control and 170 % of control | T/C (dose: 5.0 mg/kg/injection, schedule: Q01DX001 (ip), vehicle: water): 222 % of control | T/C (dose: 6.25 mg/kg/injection, schedule: Q01DX009 (ip), vehicle: water): 97 % of control | T/C (dose: 6.5 mg/kg/injection, schedule: Q01DX001 (ip), vehicle: saline): 273 % of control and 327 % of control | T/C (dose: 6.7 mg/kg/injection, schedule: Q01DX001 (ip), vehicle: saline): 257 % of control | T/C (dose: 8.0 mg/kg/injection, schedule: Q01DX001 (ip), vehicle: none): 207 % of control | T/C (dose: 8.0 mg/kg/injection, schedule: Q01DX001 (ip), vehicle: other): 316 % of control | T/C (dose: 8.0 mg/kg/injection, schedule: Q01DX001 (oral), vehicle: saline): 240 % of control | T/C (dose: 8.0 mg/kg/injection, schedule: Q01DX001 (sc), vehicle: saline): 150 % of control | T/C (dose: 8.0 mg/kg/injection, schedule: Q01DX009 (ip), vehicle: water): 279 % of control | T/C (dose: 8.0 mg/kg/injection, schedule: Q04DX003 (ip), vehicle: saline): 103 % of control | T/C (dose: 9.1 mg/kg/injection, schedule: Q01DX009 (ip), vehicle: saline): 86 % of control | T/C (dose: 9.7 mg/kg/injection, schedule: Q01DX001 (ip), vehicle: saline): 151 % of control and 254 % of control | T/C (dose: 10.0 mg/kg/injection, schedule: Q01DX001 (ip), vehicle: water): 278 % of control | T/C (dose: 11.6 mg/kg/injection, schedule: Q01DX001 (ip), vehicle: saline): 234 % of control and 314 % of control | T/C (dose: 16.0 mg/kg/injection, schedule: Q01DX001 (ip), vehicle: none): 155 % of control | T/C (dose: 16.0 mg/kg/injection, schedule: Q01DX001 (ip), vehicle: other): 279 % of control | T/C (dose: 16.0 mg/kg/injection, schedule: Q01DX001 (oral), vehicle: saline): 223 % of control | T/C (dose: 16.0 mg/kg/injection, schedule: Q01DX009 (ip), vehicle: water): 383 % of control | T/C (dose: 16.0 mg/kg/injection, schedule: Q08DX002 (ip), vehicle: saline): 90 % of control | T/C (dose: 32.0 mg/kg/injection, schedule: Q01DX001 (ip), vehicle: none): 64 % of control | T/C (dose: 200.0 mg/kg/injection, schedule: Q01DX001 (ip), vehicle: water): 115 % of control | T/C (dose: 400.0 mg/kg/injection, schedule: Q01DX001 (ip), vehicle: water): 199 % of control | T/C (dose: 800.0 mg/kg/injection, schedule: Q01DX001 (ip), vehicle: water): 158 % of control | T/C (dose: 125.0 micrograms/kg/injection, schedule: Q03HX024 (ip), vehicle: saline): 121 % of control | T/C (dose: 500.0 micrograms/kg/injection, schedule: Q03HX024 (ip), vehicle: saline): 165 % of control | T/C (dose: 1000.0 micrograms/kg/injection, schedule: Q03HX024 (ip), vehicle: saline): 211 % of control

C[N+](C)(C)CC1(COC(=O)C(O)(c2ccccc2)c2ccccc2)CC1
T/C (dose: 12.0 mg/kg/injection, schedule: Q04DX003 (ip), vehicle: Klucel (hydroxypropylcellulose) (HPC)): 97 % of control | T/C (dose: 25.0 mg/kg/injection, schedule: Q01DX001 (ip), vehicle: Klucel (hydroxypropylcellulose) (HPC)): 93 % of control | T/C (dose: 25.0 mg/kg/injection, schedule: Q04DX003 (ip), vehicle: Klucel (hydroxypropylcellulose) (HPC)): 105 % of control | T/C (dose: 50.0 mg/kg/injection, schedule: Q01DX001 (ip), vehicle: Klucel (hydroxypropylcellulose) (HPC)): 100 % of control | T/C (dose: 50.0 mg/kg/injection, schedule: Q04DX003 (ip), vehicle: Klucel (hydroxypropylcellulose) (HPC)): 95 % of control | T/C (dose: 100.0 mg/kg/injection, schedule: Q01DX001 (ip), vehicle: Klucel (hydroxypropylcellulose) (HPC)): 96 % of control and 100 % of control

Source: PubChem BioAssay AID248 (DTP/NCI, 2004)
